Data as given in US20160038526A1, “TREATMENT OF PROSTATE CANCER” (THOMAS JEFFERSON UNIVERSITY, priority 2012, published 2016).
Entries after “also recorded” stand apart in the source; their conditions may differ.

Tests used:
HT1080 (fibrosarcoma) = test: Cell viability assay, HT1080; type: cell-based
[1] = test system: CAPAN human pancreatic cancer cells; test: Cell viability assay, CAPAN; type: cell-based
Experimental: CWR22Rv1 prostate cancer cells were treated with N6BAP or the control compound C5 (Ctrl) at 25 μM concentration or vehicle for 24 h. Following trypan blue exclusion, the attached viable vs. de-attached dead cells were counted. […] The bars indicate mean±SD of triplicate wells. In another assay, CWR22Rv1, LNCaP and DU145 cells were treated with N6BAP, the control compound C5 (Ctrl) or vehicle at indicated concentrations. The fraction of alive cells was determined by MTS ([…]) metabolic activity assay (CellTiter 96® AQueous Assay kit). The results are shown in FIGS. 9C, 9D and 9E, respectively.
The procedure of Example 9 was followed, substituting cells of the following solid tumor cell lines for the cells treated in Example 9: A549 human lung cancer cells, CAPAN human pancreatic cancer cells, T47D human breast cancer cells, […], A2058 human melanoma and COS-7 monkey fibroblast cell lines.

CWR22Rv1 xenograft tumor = test: CWR22Rv1 human prostate tumor xenograft in nude mice: tumor growth, viable cells, TUNEL; type: in vivo; conditions: nude mice, 25, 50 or 100 mg/kg intraperitoneal daily for 10 days
Experimental: 1.5×10^7 CWR22Rv1 cells in 0.1 ml RPMI 1640 medium were mixed with 0.1 ml of Matrigel (BD Bioscience, Palo Alto, Calif.), and were inoculated subcutaneously (s.c.) into one flank per mouse. Established tumors were randomly distributed into five groups (ten mice for each group) with similar average size. N6BAP was dissolved in 0.3% hydroxycellulose (HPC). Mice were treated daily for 10 days by intraperitoneal injection with 0.2 ml of N6BAP at 25 mg/kg, 50 mg/kg or 100 mg/kg body weight, or with 0.2 ml 0.3% HPC solution, or no treatment for control. Tumor sizes were measured three times per week. Tumor volumes were calculated using the following formula: 3.14×length×width×depth/6. Tumor growth rates were calculated, and percent changes in tumor volume of each group were presented. […] Individual tumors are represented as columns.
Tumor sections were hematoxylin-eosin stained to assess the loss of viable tumor cells. The results are shown in FIG. 12A, showing the loss of live epithelial cells with the […] N6BAP-treated CWR22Rv1 xenograft tumors vs. controls.
In situ end labeling of fragmented DNA was carried out according to the terminal deoxyribonucleotidyl transferse (TdT)-mediated biotin-16-dUTP nick-end labeling (TUNEL) assay to determine that cells within the CWR22Rv1 tumors were undergoing apoptosis. The assay was performed according to the In situ Cell Death Detection Kit from Roche Applied Science. Briefly, rehydrated deparaffinated tissue sections from the xenograft tumors were treated by Proteinase K followed by 3% H2O2 at room temperature. […] Nucleotides incorporated into fragmented DNA were detected after incubation with anti-fluorescein antibody conjugated with peroxidase followed by visualization with 3,3-diaminobenzidine as a chromogen and methyl green as a counterstain. […] Cell viability indexes were determined by counting alive cells per total number of cells per view established in the no treatment group. TUNEL indexes were determined by counting epithelial cells with TUNEL-positive cells per total number of epithelial cells per view. […]

Stat5a = target: T1, Stat5a (Homo sapiens, UniProt P42229); test: Stat5a transcriptional activity, β-casein promoter luciferase reporter gene assay in PC-3 cells; type: cell-based; set-up: expressed in transfected cells; host or cells: PC-3 (human prostate cancer cell line); conditions: 1 hour pretreatment, 10 nM hPrl for 16 hours
T1 sequence (P42229 1-794): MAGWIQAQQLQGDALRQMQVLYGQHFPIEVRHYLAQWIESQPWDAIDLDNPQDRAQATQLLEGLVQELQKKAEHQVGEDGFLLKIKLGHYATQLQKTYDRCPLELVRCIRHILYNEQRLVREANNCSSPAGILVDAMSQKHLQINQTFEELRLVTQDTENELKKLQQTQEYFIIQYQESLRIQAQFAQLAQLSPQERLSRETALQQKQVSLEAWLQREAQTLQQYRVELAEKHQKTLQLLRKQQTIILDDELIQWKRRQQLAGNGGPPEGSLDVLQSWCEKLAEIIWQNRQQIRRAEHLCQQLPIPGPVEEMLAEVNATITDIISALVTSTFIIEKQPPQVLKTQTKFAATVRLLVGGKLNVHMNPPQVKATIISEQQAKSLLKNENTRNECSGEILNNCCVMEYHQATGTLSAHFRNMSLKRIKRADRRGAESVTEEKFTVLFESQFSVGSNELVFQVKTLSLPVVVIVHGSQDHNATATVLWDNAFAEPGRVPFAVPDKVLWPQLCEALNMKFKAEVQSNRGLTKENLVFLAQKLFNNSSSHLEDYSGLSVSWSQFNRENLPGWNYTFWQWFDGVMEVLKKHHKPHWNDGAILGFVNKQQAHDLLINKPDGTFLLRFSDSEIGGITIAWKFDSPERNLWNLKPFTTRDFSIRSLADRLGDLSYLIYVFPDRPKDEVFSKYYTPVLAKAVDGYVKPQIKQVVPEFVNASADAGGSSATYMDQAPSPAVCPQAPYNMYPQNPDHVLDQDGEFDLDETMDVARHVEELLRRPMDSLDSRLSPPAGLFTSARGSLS
Experimental: Cells of the human prostate cell line PC-3 were plated into 96-well plate at the density of 2×10^5 per well. After 24 hours of plating, cells were transiently co-transfected using FuGENE6 (Roche) with 0.25 μg of each of pStat5a or pStat5b, pPrlR (prolactin receptor) plasmids, 0.5 μg of pBeta-casein-luc and 0.025 μg of pRL-TK (Renilla luciferase) plasmids as an internal control. After another 24 hours of transfection, the cells were starved in serum-free medium for 8 hours, pretreated with N^6-benzyladenosine-5′-monophosphate (“N6BAP”), or one of five control compounds (designated “C3” through “C7”) of similar molecular weight but unrelated chemical structure to N6BAP), for 1 hour, and then stimulated with 10 nM human prolactin (hPrl) in the serum-free medium for additional 16 hours. The lysates were assayed for firefly and Renilla luciferase activities using the Dual-Luciferase reporter assay system (Promega). Three independent experiments were carried out in triplicate. The firefly luciferase activity was normalized to the Renilla luciferase activity of the same sample, and the mean was calculated from the parallels. From the mean values of each independent run, the overall mean and its standard deviation (S.D.) were calculated.

## O=P(O)(O)OC[C@H]1O[C@@H](n2cnc3c(NCc4ccccc4)ncnc32)[C@H](O)[C@@H]1O [N6BAP, N^6-benzyladenosine-5′-monophosphate]
HT1080 (fibrosarcoma)
  cell viability: did not affect the viability
[1]
  cell viability: did not affect the viability
CWR22Rv1 xenograft tumor
  apoptotic epithelial cells in tumor xenografts (TUNEL): increased apoptotic epithelial cells
  live epithelial cells in tumor xenografts (hematoxylin-eosin staining): decreased the number of live epithelial cells
  xenograft tumor growth (tumor volume): inhibited the growth of the xenograft tumor in a dose-dependent manner
Stat5a
  transcriptional activity of Stat5a on the β-casein gene promoter: inhibited Stat5a and Stat5b transcriptional activity in a concentration-dependent manner; also recorded: effectively blocks the transcriptional activity
